Data on eleven compounds can be found in article PMC12120022, “Discovery and chemical optimisation of a potent, Bi-cyclic antimicrobial inhibitor of Escherichia coli PBP3” (Communications Biology, 2025).

Usually Ki stands for a measure of affinity in units of concentration, obtained from inhibition or displacement.

This assay addresses T1, EcPBP3 (Escherichia coli, UniProt P0AD68).
T1 construct: For assays, selections and SPR a construct with residues 60–588 which has the N-terminal domain, but not the transmembrane helix, was used; made in house
The assay is described as follows: Fluorescence polarisation competition assay with fluorescent Bicycle tracer (tracer 1 / BCY12820). It is filed as binding. Particulars: protein 9.4 nM sets sensitivity limit, top concentration 5 µM, read-out: Ki (nM) by fluorescence polarisation with tracer 1 (BCY12820 as tracer), Geometric mean (Lower 95% CI; Upper 95% CI, n=number of values). As for the experimental part:
Competition fluorescence polarisation assays were run by observing the fluorescence polarisation of a fluorescent “tracer” Bicycle molecule which competes against an unlabelled peptide for binding to the EcPBP3 target. 10 µL of protein (9.4 nM) was mixed with either 5 µL of peptide or 5 µL of buffer and then the assay was initiated by the addition of 10 µL of tracer (1 nM) (final volume 25 µL), in a black 384 low bind, low volume plate (Corning). The buffer was 10 mM HEPES (Sigma), 2% (v/v) glycerol (Sigma), 300 mM NaCl (Sigma), adjusted to pH 8. The plate was incubated for 1 h at 25 °C and then read in a PHERAstar FS (BMG) using with an “FP 485 520 520” optic module (excitation 485 nm, emission 520 nm). The gain was determined immediately prior to the read on a tracer-only well.
Dotmatics (Dotmatics) workflows performing the above calculations were used to process the data. Values quoted are the geometric means of at least 2 repeats.

Each structure is given as a SMILES string. Where a SMILES comes first, the peptide text is derived from it.

T1 sequence (P0AD68 60-588): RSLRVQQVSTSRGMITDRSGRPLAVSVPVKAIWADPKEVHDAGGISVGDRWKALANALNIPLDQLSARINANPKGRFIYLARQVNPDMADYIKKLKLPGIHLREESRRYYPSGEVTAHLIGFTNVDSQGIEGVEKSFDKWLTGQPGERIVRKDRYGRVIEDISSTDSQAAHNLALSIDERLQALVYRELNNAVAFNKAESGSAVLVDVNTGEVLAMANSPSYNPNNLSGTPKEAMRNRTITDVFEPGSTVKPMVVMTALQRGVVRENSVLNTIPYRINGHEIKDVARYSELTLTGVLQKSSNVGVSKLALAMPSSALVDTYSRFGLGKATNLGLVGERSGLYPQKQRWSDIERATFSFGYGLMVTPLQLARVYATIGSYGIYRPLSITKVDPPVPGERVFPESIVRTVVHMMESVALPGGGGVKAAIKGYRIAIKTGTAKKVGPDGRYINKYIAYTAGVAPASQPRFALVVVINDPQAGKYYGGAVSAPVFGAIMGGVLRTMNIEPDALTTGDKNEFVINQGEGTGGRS

Turning to `CC(C)[C@@H]1NC(=O)[C@H](Cc2c[nH]c3ccccc23)NC(=O)[C@@H]2CCCN2C(=O)[C@@H]2CSCCC(=O)N3CN(CN(C3)C(=O)CCSC[C@H](NC(=O)[C@H](C)N)C(=O)N[C@@H](CO)C(=O)N[C@@H](Cc3ccccc3)C(=O)N3CCC[C@H]3C(=O)N[C@@H](CCCCNC(=N)N)C(=O)N2)C(=O)CCSC[C@@H](C(=O)N[C@@H](C)C(N)=O)NC(=O)CNC(=O)[C@@H]2CCCN2C1=O` [Peptide 47] (HELM PEPTIDE1{A.C.S.F.P.[N=C(N)NCCCC[C@H](N[*:1])C(=O)[*:2]].C.P.W.V.P.G.C.A.[am]}|CHEM1{[O=C(CC[*:1])N1CN(C(=O)CC[*:2])CN(C(=O)CC[*:3])C1]}$PEPTIDE1,CHEM1,2:R3-1:R1|PEPTIDE1,CHEM1,7:R3-1:R2|PEPTIDE1,CHEM1,13:R3-1:R3$$$V2.0), the Ki stood at 18 nM.
In the case of `CC(C)[C@@H]1NC(=O)[C@H](Cc2c[nH]c3ccccc23)NC(=O)[C@@H]2CCCN2C(=O)[C@@H]2CSCCC(=O)N3CN(CN(C3)C(=O)CCSC[C@H](NC(=O)[C@H](C)N)C(=O)N[C@@H](CO)C(=O)N[C@@H](Cc3c[nH]cn3)C(=O)N3CCC[C@H]3C(=O)N[C@@H](CCCCNC(=N)N)C(=O)N2)C(=O)CCSC[C@@H](C(=O)N[C@@H](C)C(N)=O)NC(=O)CNC(=O)[C@H](CCC(=O)O)NC1=O` [Peptide 32] (HELM PEPTIDE1{A.C.S.H.P.[N=C(N)NCCCC[C@H](N[*:1])C(=O)[*:2]].C.P.W.V.E.G.C.A.[am]}|CHEM1{[O=C(CC[*:1])N1CN(C(=O)CC[*:2])CN(C(=O)CC[*:3])C1]}$PEPTIDE1,CHEM1,2:R3-1:R1|PEPTIDE1,CHEM1,7:R3-1:R2|PEPTIDE1,CHEM1,13:R3-1:R3$$$V2.0), the Ki was found to be 115 nM.
Under `CC(C)[C@@H]1NC(=O)[C@H](Cc2c[nH]c3ccccc23)NC(=O)[C@@H]2CCCN2C(=O)[C@@H]2CSCCC(=O)N3CN(CN(C3)C(=O)CCSC[C@@H](C(=O)N[C@@H](C)C(N)=O)NC(=O)[C@H](CC(N)=O)NC(=O)[C@H](CCC(=O)O)NC1=O)C(=O)CCSC[C@H](NC(=O)[C@H](C)N)C(=O)N[C@@H](CO)C(=O)N[C@@H](Cc1ccccc1)C(=O)N1CCC[C@H]1C(=O)N[C@@H](CCCCNC(=N)N)C(=O)N2` [Peptide 52] (HELM PEPTIDE1{A.C.S.F.P.[N=C(N)NCCCC[C@H](N[*:1])C(=O)[*:2]].C.P.W.V.E.N.C.A.[am]}|CHEM1{[O=C(CC[*:1])N1CN(C(=O)CC[*:2])CN(C(=O)CC[*:3])C1]}$PEPTIDE1,CHEM1,2:R3-1:R1|PEPTIDE1,CHEM1,7:R3-1:R2|PEPTIDE1,CHEM1,13:R3-1:R3$$$V2.0) stands below 9 nM.
The value for `CC(C)[C@@H]1NC(=O)[C@H](Cc2c[nH]c3ccccc23)NC(=O)[C@@H]2CCCN2C(=O)[C@@H]2CSCCC(=O)N3CN(CN(C3)C(=O)CCSC[C@H](NC(=O)[C@H](C)N)C(=O)N[C@@H](CO)C(=O)N[C@@H](Cc3ccccc3)C(=O)N[C@@H](Cc3c[nH]cn3)C(=O)N[C@@H](CCCCNC(=N)N)C(=O)N2)C(=O)CCSC[C@@H](C(=O)N[C@@H](C)C(N)=O)NC(=O)CNC(=O)[C@H](CCC(=O)O)NC1=O` [Peptide 37] (HELM PEPTIDE1{A.C.S.F.H.[N=C(N)NCCCC[C@H](N[*:1])C(=O)[*:2]].C.P.W.V.E.G.C.A.[am]}|CHEM1{[O=C(CC[*:1])N1CN(C(=O)CC[*:2])CN(C(=O)CC[*:3])C1]}$PEPTIDE1,CHEM1,2:R3-1:R1|PEPTIDE1,CHEM1,7:R3-1:R2|PEPTIDE1,CHEM1,13:R3-1:R3$$$V2.0) was 31.5 nM.
`CC(C)[C@@H]1NC(=O)[C@H](Cc2c[nH]c3ccccc23)NC(=O)[C@@H]2CCCN2C(=O)[C@@H]2CSCCC(=O)N3CN(CN(C3)C(=O)CCSC[C@H](NC(=O)[C@H](C)N)C(=O)N[C@@H](CO)C(=O)N[C@@H](Cc3ccccc3)C(=O)N[C@@H]([C@@H](C)O)C(=O)N[C@@H](CCCCNC(=N)N)C(=O)N2)C(=O)CCSC[C@@H](C(=O)N[C@@H](C)C(N)=O)NC(=O)CNC(=O)[C@H](CCC(=O)O)NC1=O` [Peptide 36] (HELM PEPTIDE1{A.C.S.F.T.[N=C(N)NCCCC[C@H](N[*:1])C(=O)[*:2]].C.P.W.V.E.G.C.A.[am]}|CHEM1{[O=C(CC[*:1])N1CN(C(=O)CC[*:2])CN(C(=O)CC[*:3])C1]}$PEPTIDE1,CHEM1,2:R3-1:R1|PEPTIDE1,CHEM1,7:R3-1:R2|PEPTIDE1,CHEM1,13:R3-1:R3$$$V2.0): the Ki worked out at 75 nM.
Under `CC[C@H](C)[C@@H]1NC(=O)[C@H](Cc2c[nH]c3ccccc23)NC(=O)[C@@H]2CCCN2C(=O)[C@@H]2CSCCC(=O)N3CN(CN(C3)C(=O)CCSC[C@H](NC(=O)[C@H](C)N)C(=O)N[C@@H](CO)C(=O)N[C@@H](Cc3ccccc3)C(=O)N3CCC[C@H]3C(=O)N[C@@H](CCCCNC(=N)N)C(=O)N2)C(=O)CCSC[C@@H](C(=O)N[C@@H](C)C(N)=O)NC(=O)CNC(=O)[C@H](CCC(=O)O)NC1=O` [Peptide 45] (HELM PEPTIDE1{A.C.S.F.P.[N=C(N)NCCCC[C@H](N[*:1])C(=O)[*:2]].C.P.W.I.E.G.C.A.[am]}|CHEM1{[O=C(CC[*:1])N1CN(C(=O)CC[*:2])CN(C(=O)CC[*:3])C1]}$PEPTIDE1,CHEM1,2:R3-1:R1|PEPTIDE1,CHEM1,7:R3-1:R2|PEPTIDE1,CHEM1,13:R3-1:R3$$$V2.0) stands below 9 nM; under `CC(C)[C@@H]1NC(=O)[C@H](Cc2ccc(O)cc2)NC(=O)[C@@H]2CCCN2C(=O)[C@@H]2CSCCC(=O)N3CN(CN(C3)C(=O)CCSC[C@H](NC(=O)[C@H](C)N)C(=O)N[C@@H](CO)C(=O)N[C@@H](Cc3ccccc3)C(=O)N3CCC[C@H]3C(=O)N[C@@H](CCCCNC(=N)N)C(=O)N2)C(=O)CCSC[C@@H](C(=O)N[C@@H](C)C(N)=O)NC(=O)CNC(=O)[C@H](CCC(=O)O)NC1=O` [Peptide 42] (HELM PEPTIDE1{A.C.S.F.P.[N=C(N)NCCCC[C@H](N[*:1])C(=O)[*:2]].C.P.Y.V.E.G.C.A.[am]}|CHEM1{[O=C(CC[*:1])N1CN(C(=O)CC[*:2])CN(C(=O)CC[*:3])C1]}$PEPTIDE1,CHEM1,2:R3-1:R1|PEPTIDE1,CHEM1,7:R3-1:R2|PEPTIDE1,CHEM1,13:R3-1:R3$$$V2.0), 209 nM.
On to `CC(C)[C@@H]1NC(=O)[C@H](Cc2c[nH]c3ccccc23)NC(=O)[C@@H]2CCCN2C(=O)[C@@H]2CSCCC(=O)N3CN(CN(C3)C(=O)CCSC[C@H](NC(=O)[C@H](C)N)C(=O)N[C@@H](CO)C(=O)N[C@@H](Cc3ccccc3)C(=O)N[C@@H](CO)C(=O)N[C@@H](CCCCNC(=N)N)C(=O)N2)C(=O)CCSC[C@@H](C(=O)N[C@@H](C)C(N)=O)NC(=O)CNC(=O)[C@H](CCC(=O)O)NC1=O` [Peptide 35] (HELM PEPTIDE1{A.C.S.F.S.[N=C(N)NCCCC[C@H](N[*:1])C(=O)[*:2]].C.P.W.V.E.G.C.A.[am]}|CHEM1{[O=C(CC[*:1])N1CN(C(=O)CC[*:2])CN(C(=O)CC[*:3])C1]}$PEPTIDE1,CHEM1,2:R3-1:R1|PEPTIDE1,CHEM1,7:R3-1:R2|PEPTIDE1,CHEM1,13:R3-1:R3$$$V2.0), for which the Ki was determined as 53.4 nM.
Consider `CC(C)[C@@H]1NC(=O)[C@H](Cc2c[nH]c3ccccc23)NC(=O)[C@@H]2CCCN2C(=O)[C@@H]2CSCCC(=O)N3CN(CN(C3)C(=O)CCSC[C@H](NC(=O)[C@H](C)N)C(=O)N[C@@H](CC(N)=O)C(=O)N[C@@H](Cc3ccccc3)C(=O)N3CCC[C@H]3C(=O)N[C@@H](CCCCNC(=N)N)C(=O)N2)C(=O)CCSC[C@@H](C(=O)N[C@@H](C)C(N)=O)NC(=O)CNC(=O)[C@H](CCC(=O)O)NC1=O` [Peptide 29] (HELM PEPTIDE1{A.C.N.F.P.[N=C(N)NCCCC[C@H](N[*:1])C(=O)[*:2]].C.P.W.V.E.G.C.A.[am]}|CHEM1{[O=C(CC[*:1])N1CN(C(=O)CC[*:2])CN(C(=O)CC[*:3])C1]}$PEPTIDE1,CHEM1,2:R3-1:R1|PEPTIDE1,CHEM1,7:R3-1:R2|PEPTIDE1,CHEM1,13:R3-1:R3$$$V2.0), for which the Ki is below 9 nM.
Under `CC(C)C[C@@H]1NC(=O)[C@H](C(C)C)NC(=O)[C@H](Cc2c[nH]c3ccccc23)NC(=O)[C@@H]2CCCN2C(=O)[C@@H]2CSCCC(=O)N3CN(CN(C3)C(=O)CCSC[C@H](NC(=O)[C@H](C)N)C(=O)N[C@@H](CO)C(=O)N[C@@H](Cc3ccccc3)C(=O)N3CCC[C@H]3C(=O)N[C@@H](CCCCNC(=N)N)C(=O)N2)C(=O)CCSC[C@@H](C(=O)N[C@@H](C)C(N)=O)NC(=O)CNC1=O` [Peptide 48] (HELM PEPTIDE1{A.C.S.F.P.[N=C(N)NCCCC[C@H](N[*:1])C(=O)[*:2]].C.P.W.V.L.G.C.A.[am]}|CHEM1{[O=C(CC[*:1])N1CN(C(=O)CC[*:2])CN(C(=O)CC[*:3])C1]}$PEPTIDE1,CHEM1,2:R3-1:R1|PEPTIDE1,CHEM1,7:R3-1:R2|PEPTIDE1,CHEM1,13:R3-1:R3$$$V2.0) stands 49.7 nM; under `CC(C)[C@@H]1NC(=O)[C@H](Cc2c[nH]c3ccccc23)NC(=O)[C@@H]2CCCN2C(=O)[C@@H]2CSCCC(=O)N3CN(CN(C3)C(=O)CCSC[C@H](NC(=O)[C@H](C)N)C(=O)NCC(=O)N[C@@H](Cc3ccccc3)C(=O)N3CCC[C@H]3C(=O)N[C@@H](CCCCNC(=N)N)C(=O)N2)C(=O)CCSC[C@@H](C(=O)N[C@@H](C)C(N)=O)NC(=O)CNC(=O)[C@H](CCC(=O)O)NC1=O` [Peptide 26] (HELM PEPTIDE1{A.C.G.F.P.[N=C(N)NCCCC[C@H](N[*:1])C(=O)[*:2]].C.P.W.V.E.G.C.A.[am]}|CHEM1{[O=C(CC[*:1])N1CN(C(=O)CC[*:2])CN(C(=O)CC[*:3])C1]}$PEPTIDE1,CHEM1,2:R3-1:R1|PEPTIDE1,CHEM1,7:R3-1:R2|PEPTIDE1,CHEM1,13:R3-1:R3$$$V2.0), 17.1 nM.
